Measurements taken from patent US20120270237A9, “METHODS FOR THE IDENTIFICATION OF KINASE INTERACTING MOLECULES AND FOR THE PURIFICATION OF KINASE PROTEINS” (Cellzone AG, priority 2009, published 2012).

Columns and labels:
Test in all cases: Kinobeads competition binding, HeLa Placenta lysate mix
Design in all cases: endogenous in cells
Settings in all cases: 10 μM free compound
[1] = molecular target: T1, TAO3 (Homo sapiens, UniProt Q9H2K8)
T1 sequence (Q9H2K8 1-898): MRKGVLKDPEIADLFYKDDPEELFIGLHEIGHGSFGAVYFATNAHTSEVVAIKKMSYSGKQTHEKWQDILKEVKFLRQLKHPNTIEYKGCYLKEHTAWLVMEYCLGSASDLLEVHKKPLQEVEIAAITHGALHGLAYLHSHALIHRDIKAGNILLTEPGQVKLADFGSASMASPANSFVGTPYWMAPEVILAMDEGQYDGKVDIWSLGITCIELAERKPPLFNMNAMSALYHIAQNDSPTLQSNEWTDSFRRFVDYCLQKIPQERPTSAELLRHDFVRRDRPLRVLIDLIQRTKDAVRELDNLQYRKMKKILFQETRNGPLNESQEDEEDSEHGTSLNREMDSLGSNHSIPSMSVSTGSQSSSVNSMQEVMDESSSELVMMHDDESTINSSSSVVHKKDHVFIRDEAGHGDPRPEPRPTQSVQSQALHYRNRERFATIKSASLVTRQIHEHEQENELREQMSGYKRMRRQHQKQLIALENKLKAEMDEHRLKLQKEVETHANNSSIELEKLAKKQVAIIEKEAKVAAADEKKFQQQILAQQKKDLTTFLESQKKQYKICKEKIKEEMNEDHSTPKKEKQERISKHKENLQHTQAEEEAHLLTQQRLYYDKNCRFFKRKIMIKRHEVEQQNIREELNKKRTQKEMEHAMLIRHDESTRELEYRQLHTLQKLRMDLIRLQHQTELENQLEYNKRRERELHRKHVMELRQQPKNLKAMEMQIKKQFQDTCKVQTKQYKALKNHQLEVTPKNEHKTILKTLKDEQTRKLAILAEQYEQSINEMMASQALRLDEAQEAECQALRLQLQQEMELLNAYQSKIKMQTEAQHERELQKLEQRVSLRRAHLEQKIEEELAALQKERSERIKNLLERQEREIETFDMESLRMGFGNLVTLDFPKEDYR
Procedure: (§1) To one aliquot of cell lysate 10 μM of the free compound (FIG. 3, CZC31326) was added and allowed to bind to proteins in the lysate. Then the affinity matrix with the immobilized compound was added to capture proteins that were not interacting with the previously added free compound. Beads were separated from the lysate and bead bound proteins were eluted in SDS sample buffer and subsequently separated by SDS-Polyacrylamide gel electrophoresis (FIG. 10). Suitable gel bands were cut out and subjected to in-gel proteolytic digestion with trypsin. The second lysate aliquot was processed identically, however no free compound was added (DMSO solvent control). Peptides originating from samples 1 and 2 were labeled with iTRAQ reagents (iTRAQ 114 and iTRAQ 117) and the combined samples were analyzed with a nano-flow liquid chromatography system coupled online to a tandem mass spectrometer (LC-MS/MS) experiment followed by iTRAQ reporter ion quantification in the MS/MS spectra as described in Example 2.

[2] = molecular target: MPSK1 (Homo sapiens, UniProt O75716)
Procedure: as §1

[3] = molecular target: T2, MAP3K5 (Homo sapiens, UniProt Q99683)
T2 sequence (Q99683 1-1374): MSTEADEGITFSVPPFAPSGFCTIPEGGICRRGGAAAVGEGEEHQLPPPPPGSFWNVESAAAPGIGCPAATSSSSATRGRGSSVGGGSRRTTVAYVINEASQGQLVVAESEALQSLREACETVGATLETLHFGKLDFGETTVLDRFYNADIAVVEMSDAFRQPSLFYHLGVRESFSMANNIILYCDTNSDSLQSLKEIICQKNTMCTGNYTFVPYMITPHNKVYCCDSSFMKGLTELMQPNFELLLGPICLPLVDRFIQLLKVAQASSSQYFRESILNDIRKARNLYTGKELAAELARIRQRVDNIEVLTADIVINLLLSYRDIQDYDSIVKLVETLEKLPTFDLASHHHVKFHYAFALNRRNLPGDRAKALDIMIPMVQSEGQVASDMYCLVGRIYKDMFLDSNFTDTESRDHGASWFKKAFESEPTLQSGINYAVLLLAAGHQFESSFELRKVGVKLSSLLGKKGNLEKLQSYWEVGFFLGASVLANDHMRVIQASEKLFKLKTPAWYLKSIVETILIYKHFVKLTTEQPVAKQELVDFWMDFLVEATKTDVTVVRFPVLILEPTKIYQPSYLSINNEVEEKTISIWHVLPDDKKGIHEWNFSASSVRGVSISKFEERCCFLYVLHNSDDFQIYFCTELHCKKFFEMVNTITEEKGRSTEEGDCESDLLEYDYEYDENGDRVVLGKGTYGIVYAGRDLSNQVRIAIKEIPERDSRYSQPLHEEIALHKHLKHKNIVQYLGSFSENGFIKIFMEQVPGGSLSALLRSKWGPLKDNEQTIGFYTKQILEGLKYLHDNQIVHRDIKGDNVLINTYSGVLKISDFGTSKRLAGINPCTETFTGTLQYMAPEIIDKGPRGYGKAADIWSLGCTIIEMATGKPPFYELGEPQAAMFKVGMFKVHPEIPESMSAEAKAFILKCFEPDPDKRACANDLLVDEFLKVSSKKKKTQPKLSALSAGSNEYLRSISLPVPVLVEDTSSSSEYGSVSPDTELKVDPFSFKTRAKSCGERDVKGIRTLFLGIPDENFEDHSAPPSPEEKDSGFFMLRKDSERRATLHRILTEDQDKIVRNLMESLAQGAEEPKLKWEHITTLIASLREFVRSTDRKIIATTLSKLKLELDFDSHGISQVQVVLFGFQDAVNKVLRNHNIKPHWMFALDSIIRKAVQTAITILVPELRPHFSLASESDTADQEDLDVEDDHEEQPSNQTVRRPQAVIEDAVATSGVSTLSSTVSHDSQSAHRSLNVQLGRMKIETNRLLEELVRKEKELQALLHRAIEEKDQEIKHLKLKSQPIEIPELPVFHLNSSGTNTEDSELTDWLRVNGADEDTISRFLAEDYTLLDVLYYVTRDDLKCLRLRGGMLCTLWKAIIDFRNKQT
Procedure: as §1

Sequence of MPSK1 (O75716 whole entry): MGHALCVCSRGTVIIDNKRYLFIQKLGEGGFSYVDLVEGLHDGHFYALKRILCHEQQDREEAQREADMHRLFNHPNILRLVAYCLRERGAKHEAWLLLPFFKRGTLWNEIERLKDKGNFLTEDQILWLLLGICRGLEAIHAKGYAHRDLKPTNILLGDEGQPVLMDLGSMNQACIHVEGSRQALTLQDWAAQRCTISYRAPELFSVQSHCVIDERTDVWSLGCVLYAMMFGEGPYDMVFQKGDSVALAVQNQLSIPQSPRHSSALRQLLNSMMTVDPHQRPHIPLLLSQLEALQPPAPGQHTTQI

SMILES: CS(=O)(=O)Nc1ccccc1Nc1nc(Nc2cccc(OCCN)c2)ncc1Cl [CZC31326, N-(2-(2-(3-(2-aminoethoxy)phenylamino)-5-chloropyrimidin-4-ylamino)phenyl)methanesulfonamide]
- inhibition at 10 µM [1]: 94.4%
- inhibition at 10 µM [2]: 91.5%
- inhibition at 10 µM [3]: 86%
